Measured values from US20170089887A1, “CONTRACTILITY ASSAY” (Nano3D Biosciences, Inc, priority 2011, published 2017).
Like-named read-outs stand apart in the source and are kept apart here. Bridge positions count the residues as written; N and C are the ends. Square brackets hold non-standard residues; d marks the D form. Peptide text beside a SMILES is read from it. Orn = NCCC[C@H](N)C(=O)O; Mpa = O=C(O)CCS

Legend:
preterm labor = conditions: cited from earlier work; for Onsef of action: clinical dose per Table 1; for Delay in delivery for 48 hrs: clinical treatment of preterm labor
[1] = cited from earlier work
[2] = system: myometrial smooth muscle cells; experiment: CBiO Assay (contraction of magnetically 3D bioprinted rings); type: cell-based, human
Experimental: We developed an assay, the CBiO Assay (contractility BiO Assay) to mimic uterine contractility in vitro. The basis of this assay is one in which cells are magnetically 3D bioprinted into 3D rings (e.g., 0.125″ outer diameter, 0.0625″ inner diameter) in 384-well plates. After printing, the magnetic field is removed, and these rings contract immediately (<24 h), as cells within the ring contract, rearrange, and compact the ring.
Along with this CBiO assay, a mobile device-based imaging system (n3Dock) was used to image and measure whole plates of rings (FIG. 3). This imaging system is driven by an iPod Touch (Apple Computer, CA) that was programmed to automatically image plates at regular intervals (≧1 s) for the length of the experiment using a freely available app for download (Experimental Assistant, Nano3D Biosciences). Using the n3Dock to image rings is possible given the fine camera resolution of the iPod (5 MP, resolution=250 μm) (Timm, 2013), and the brown color of the ring imparted by the NS that provides contrast against the lightness of the surrounding media. As a result, the iPod captures images of whole plates in a compact dock that fits within most standard incubators. Of course, any smart phone or pad or tablet equipped with a camera could be used herein.
From the same tissue, cells were grown in vitro as monolayer cultures and then harvested. […]

myometrial strips = experiment: Wire myography of ex vivo myometrial strips in organ bath; design: species or system human; conditions: 1 μM-1 mM
Experimental: Ex vivo tissue was also tested for comparison to the CBiO Assay. Uterine biopsies obtained from cesarean sections were cut into myometrial strips (10×2×2 mm) mounted in an organ chamber system bath (10 mL) containing Kreb's buffer maintained at 37° C. and bubbled with 5% CO2/95% O2 to maintain the pH at 7.4. Eight uterine strips were obtained form each individual biopsy. The strips were equilibrated for 1 h starting from a resting tension of 1 g and spontaneous uterine contractility was stabilized for isometric tension recording. […] Two uterine strips were exposed to each tocolytic drug, thereby conducting duplicate experiments for each drug. […] All tocolytic doses used were based from previous human myometrial contractility studies. […] For the ex vivo tissue contractile activity, myometrial strips were mounted in a myograph organ bath system. […] The contractile inhibitory response was the area change at 5 h for the CBiO Assay, and the AUC for myography (FIG. 7). The contractile inhibitory response (CIR) in this experiment was defined as the percent change in ring image pixels before and after drug exposure. Thus, FIG. 7 reports a change in size rather than a rate. However, rates can be reported if desired.

SMILES | Onsef of action (preterm labor) [hr^63] | Delay in delivery for 48 hrs (preterm labor) | Cmax (Peak plasma concentration) ([1]; clinical dose per Table 1) [ng/ml^63] | IND/NIF preference ratio (PR) ([2]; Patient 1, area change at 5 h) | IND/NIF preference ratio (PR) ([2]; Patient 2, area change at 5 h) | IND/NIF preference ratio (PR) (myometrial strips; Patient 1, AUC) | IND/NIF preference ratio (PR) (myometrial strips; Patient 2, AUC) | Onsef of action (preterm labor; as recommended by the manufacturer) [h] | Cmax (Peak plasma concentration) ([1]; clinical dose 50 mg oral, then 25 mg every 6 hrs, as recommended by the manufacturer) [µg/mL]
CCOc1ccc(C[C@H]2NC(=O)CCSSC[C@@H](C(=O)N3CCC[C@H]3C(=O)N[C@@H](CCCN)C(=O)NCC(N)=O)NC(=O)[C@H](CC(N)=O)NC(=O)[C@H]([C@@H](C)O)NC(=O)[C@H]([C@@H](C)CC)NC2=O)cc1 [Atosiban] ([Mpa][dY](Et)ITNCP[Orn]G-NH2; disulfide 1-6) | 1 | 93%^64 | 442 |  |  |  |  |  | 
COc1ccc2c(c1)c(CC(=O)O)c(C)n2C(=O)c1ccc(Cl)cc1 [Indomethacin] |  | 90-94%^58-61 |  | 0.75 | 0.97 | 0.48 | 0.92 | 2 | 2
